Test results taken from paper PMC10056899, “Neuroprotective and Antiherpetic Properties of Polyphenolic Compounds from Maackia amurensis Heartwood” (Molecules, 2023).
Several values for one entry are separate records, joined by “and”; a condition that tells them apart may be missing. Equal entries are not always repeated.

Key:
[1] = DPPH radical scavenging assay; conditions: 20 min; for IC50: read-out: DPPH Scavenging Effect IC50
Method: The DPPH (2,2-diphenyl-1-picrylhydrazyl) scavenging effect of polyphenolic compounds 1-6 from M. amurensis heartwood was evaluated as described previously in [40]. Stilbenes were added to DPPH solution in MeOH (10^−4 M) at a concentration range from 1 to 34 µM. The mixture was kept in the dark at room temperature for 20 min. Then, we measured the absorbance at 517 nm using a Shimadzu UV 1240 spectrophotometer (Shimadzu, Kyoto, Japan). The DPPH radical-scavenging effect (%) of the stilbenes was calculated using Equation (1): (1) DPPH scavenging effect, %=A0−Ax/A0×100, where: • A0 is the absorbance of DPPH solution without polyphenolic compounds (blank sample); • Ax is the absorbance of DPPH solution in the presence of different concentrations of polyphenolic compounds.
Quercetin and ascorbic acid were used as reference compounds. All experiments were performed in triplicate. The half maximal inhibitory concentration (IC50) for polyphenolic compounds was calculated by plotting the DPPH scavenging effect (%) against the concentrations of polyphenolic compounds. IC50 values are given as the mean ± SEM.

[2] = Cytotoxicity against Vero cells (MTT assay); format: cell-based; conditions: African green monkey (Chlorocebus sp.)
Method: The HSV-1 strain L2 and Vero cell culture (kidney epithelial cells of the African green monkey Chlorocebus sp.) were obtained from the N.F. Gamaleya Federal Research Centre for Epidemiology and Microbiology (Moscow, Russia). HSV-1 was grown in Vero cells, using Dulbecco′s Modified Eagle′s Medium (DMEM, Biolot, St. Petersburg, Russia) supplemented with 10% fetal bovine serum (FBS, Biolot, St. Petersburg, Russia) and 100 U/mL of gentamycin (Dalkhimpharm, Khabarovsk, Russia), at 37 °C in a CO2 incubator. In the maintenance medium, the FBS concentration was decreased to 1%.
The tested compounds were dissolved in DMSO (Sigma, St. Louis, MO, USA) at a concentration 10 mg/mL and stored at −20 °C. For cytotoxicity and anti-HSV-1 activity determination, the stock solutions were diluted with DMEM so that the final concentration of DMSO was 0.5%.
The cytotoxicity evaluation of the studied compounds was performed using the MTT assay, as described previously. In brief, confluent Vero cells in 96-well microplates (1 × 10^4 cells/well) were incubated with tested compounds at various concentrations (1–500 μg/mL) at 37 °C for 48 h (5% CO2). Untreated cells were used as controls. Then, MTT solution (methylthiazolyltetrazolium bromide, Sigma, St. Louis, MO, USA) was added to cells at a concentration of 5 mg/mL and the cells were incubated at 37 °C for 2 h. After dissolution of formazan crystals, optical densities were read at 540 nm (Labsystems Multiskan RC, Vantaa, Finland). […] [42]. Experiments were performed in triplicate and repeated three times.

HSV-1 = experiment: Anti-HSV-1 activity, HSV-1 DNA level by real-time PCR (RT-PCR); format: cell-based, HSV-1 strain L2; conditions: 5 µg/mL, simultaneous treatment, 48 h; for 1, 4 and Maxar given on average
Method: The anti-HSV-1 activity of the polyphenolic compounds from M. amurensis was also studied using the real-time PCR (RT-PCR) technique (Figure 5 and Table S69, Supplementary Data). Vero cells were simultaneously infected with 100 TCD50/mL HSV-1 and treated with polyphenolic compounds 1–6 at concentrations of 50 and 5 μg/mL. After 48 h of cell incubation, viral DNA was extracted from the supernatants, and the relative level of HSV-1 DNA was determined using RT-PCR. The effect of stilbenes on the relative level of viral DNA was assessed by 2^−ΔCt method and reported as fold reduction relative to virus control, to which the value of 1.0 was assigned.
For the viral DNA extraction assay, Vero cells grown in 96-well plates were infected with HSV-1 and simultaneously treated with polyphenolic compounds and incubated at 37 °C in a CO2-incubator for 48 h. After incubation, the culture media and the cells scraped from the plate were transferred to centrifuge tubes. The cell debris was removed by centrifugation at 300× g for 10 min. Then, supernatant was collected and kept at −20 °C. The HSV-1 DNA was extracted from supernatant by using the AmpliSens® DNA-sorb-AM (K1-12-100-CE) nucleic acid extraction kit (Moscow, Russia) according to the manufacturer′s instructions. […]
The DNA HSV was detected in the obtained DNA samples using the AmpliSens® HSV I, II-FRT-100F PCR kit (Moscow, Russia) on a real-time PCR instrument Rotor-Gene Q (Qiagen, Hilden, Nordrhein-Westfalen, Germany) according to the manufacturer′s instructions. […] In the real-time PCR, the amplified product is detected with the use of fluorescent dyes. […] The threshold cycle number, Ct, was measured as the PCR cycle, where the amount of amplified target reached the threshold value. The reduction in the HSV-1 DNA levels in culture supernatants was assessed by the change in the threshold cycle (ΔCt) (Equation (4)):(4) ΔCt=Cttv−Ctcv where: • Cttv is the average Ct value for the infected samples after treatment with polyphenolic compounds; • Ctcv corresponds to the average Ct value for the virus control. […]

| SMILES | DPPH Scavenging Effect IC50 [1] | IC50 [1] | CC50 at 48 h [2] | Reduction of relative level of HSV-1 DNA relative to virus control (HSV-1) |
| --- | --- | --- | --- | --- |
| COc1ccc([C@@H]2COc3cc(O)ccc3[C@H]2c2c(O)cc(O)cc2/C=C/c2ccc(O)c(O)c2)c(O)c1 [Compound 1] | 2.25 ± 0.25 µg | 4.3 ± 0.5 µM | 162 µg/mL and 316 µM | ~1.3 log10 |
| Oc1ccc(/C=C/c2cc(O)cc3c2[C@H](c2cc(O)cc(O)c2)[C@@H](c2ccc(O)c(O)c2)O3)cc1 [Compound 4, scirpusin A] | 1.50 ± 0.19 µg | 3.2 ± 0.4 µM | 199 µg/mL and 424 µM | ~1.3 log10 |
